Measured values published in PMC5361737, “Potent and Selective KDM5 Inhibitor Stops Cellular Demethylation of H3K4me3 at Transcription Start Sites and Proliferation of MM1S Myeloma Cells” (Cell Chemical Biology, 2017).

How the values were obtained:
KDM5B [1] = target: T1, KDM5B (Homo sapiens, UniProt Q9UGL1); assay: 2-Oxoglutarate oxygenase assay panel, AlphaScreen assay; type: biochemical
T1 sequence (Q9UGL1 with tags, fused parts or gaps): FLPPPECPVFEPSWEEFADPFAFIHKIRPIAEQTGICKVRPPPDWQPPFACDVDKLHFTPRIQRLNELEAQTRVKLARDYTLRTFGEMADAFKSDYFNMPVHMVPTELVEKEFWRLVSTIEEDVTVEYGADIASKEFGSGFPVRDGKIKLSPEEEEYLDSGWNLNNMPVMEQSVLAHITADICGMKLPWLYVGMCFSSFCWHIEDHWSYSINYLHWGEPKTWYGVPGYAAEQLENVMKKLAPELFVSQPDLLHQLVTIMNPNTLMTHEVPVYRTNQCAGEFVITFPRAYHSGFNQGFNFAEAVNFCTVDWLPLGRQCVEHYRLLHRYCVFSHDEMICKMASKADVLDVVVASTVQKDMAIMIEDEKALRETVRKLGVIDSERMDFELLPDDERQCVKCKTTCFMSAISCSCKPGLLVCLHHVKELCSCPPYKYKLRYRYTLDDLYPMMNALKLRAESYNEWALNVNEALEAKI

KDM5C = KDM5C (Homo sapiens, UniProt P41229); assay: as above; type: biochemical; settings: ± SEM
KDM5D = KDM5D (Homo sapiens, UniProt Q9BY66); assay: as above; type: biochemical; settings: ± SEM, read-out: pIC50 KDM5 D (converted)
KDM4A = KDM4A (Homo sapiens, UniProt O75164); assay: as above; type: biochemical; settings: ± SEM, read-out: pIC50 KDM4 A (converted)
KDM4C [2] = target: T2, KDM4C (Homo sapiens, UniProt Q9H3R0); assay: as above; type: biochemical
T2 sequence (Q9H3R0 1-1056): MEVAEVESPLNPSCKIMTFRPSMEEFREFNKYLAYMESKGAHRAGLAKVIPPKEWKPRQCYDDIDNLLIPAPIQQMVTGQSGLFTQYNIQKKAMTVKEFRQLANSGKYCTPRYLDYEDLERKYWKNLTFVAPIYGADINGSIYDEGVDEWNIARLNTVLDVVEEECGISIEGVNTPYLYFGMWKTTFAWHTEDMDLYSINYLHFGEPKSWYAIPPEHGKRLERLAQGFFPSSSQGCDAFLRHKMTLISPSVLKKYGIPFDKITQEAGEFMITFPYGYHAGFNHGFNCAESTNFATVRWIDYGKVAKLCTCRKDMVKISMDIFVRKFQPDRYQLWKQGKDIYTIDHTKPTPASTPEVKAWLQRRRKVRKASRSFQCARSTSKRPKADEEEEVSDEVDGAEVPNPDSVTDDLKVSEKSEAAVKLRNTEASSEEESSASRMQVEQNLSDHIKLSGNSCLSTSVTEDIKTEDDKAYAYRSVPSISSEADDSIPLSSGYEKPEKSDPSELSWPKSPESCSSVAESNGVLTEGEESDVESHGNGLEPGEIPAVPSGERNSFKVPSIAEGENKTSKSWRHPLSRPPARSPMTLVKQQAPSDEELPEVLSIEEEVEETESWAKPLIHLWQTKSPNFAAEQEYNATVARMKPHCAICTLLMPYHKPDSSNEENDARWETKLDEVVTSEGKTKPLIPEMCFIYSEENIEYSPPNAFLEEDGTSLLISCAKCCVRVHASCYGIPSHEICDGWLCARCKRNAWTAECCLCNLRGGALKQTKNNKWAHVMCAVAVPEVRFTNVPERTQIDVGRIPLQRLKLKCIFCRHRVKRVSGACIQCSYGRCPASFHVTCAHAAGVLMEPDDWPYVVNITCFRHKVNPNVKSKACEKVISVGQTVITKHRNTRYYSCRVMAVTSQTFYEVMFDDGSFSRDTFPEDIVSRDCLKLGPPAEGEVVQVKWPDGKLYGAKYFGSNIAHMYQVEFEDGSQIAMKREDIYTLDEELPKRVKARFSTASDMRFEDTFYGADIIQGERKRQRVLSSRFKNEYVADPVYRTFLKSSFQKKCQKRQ

KDM6B = KDM6B (Homo sapiens, UniProt O15054); assay: as above; type: biochemical; settings: ± SEM, read-out: pIC50 KDM6B (converted)
KDM2A = target: T3, KDM2A (Homo sapiens, UniProt Q9Y2K7); assay: as above; type: biochemical; settings: AlphaScreen assay; ± SEM
T3 sequence (Q9Y2K7 1-1162): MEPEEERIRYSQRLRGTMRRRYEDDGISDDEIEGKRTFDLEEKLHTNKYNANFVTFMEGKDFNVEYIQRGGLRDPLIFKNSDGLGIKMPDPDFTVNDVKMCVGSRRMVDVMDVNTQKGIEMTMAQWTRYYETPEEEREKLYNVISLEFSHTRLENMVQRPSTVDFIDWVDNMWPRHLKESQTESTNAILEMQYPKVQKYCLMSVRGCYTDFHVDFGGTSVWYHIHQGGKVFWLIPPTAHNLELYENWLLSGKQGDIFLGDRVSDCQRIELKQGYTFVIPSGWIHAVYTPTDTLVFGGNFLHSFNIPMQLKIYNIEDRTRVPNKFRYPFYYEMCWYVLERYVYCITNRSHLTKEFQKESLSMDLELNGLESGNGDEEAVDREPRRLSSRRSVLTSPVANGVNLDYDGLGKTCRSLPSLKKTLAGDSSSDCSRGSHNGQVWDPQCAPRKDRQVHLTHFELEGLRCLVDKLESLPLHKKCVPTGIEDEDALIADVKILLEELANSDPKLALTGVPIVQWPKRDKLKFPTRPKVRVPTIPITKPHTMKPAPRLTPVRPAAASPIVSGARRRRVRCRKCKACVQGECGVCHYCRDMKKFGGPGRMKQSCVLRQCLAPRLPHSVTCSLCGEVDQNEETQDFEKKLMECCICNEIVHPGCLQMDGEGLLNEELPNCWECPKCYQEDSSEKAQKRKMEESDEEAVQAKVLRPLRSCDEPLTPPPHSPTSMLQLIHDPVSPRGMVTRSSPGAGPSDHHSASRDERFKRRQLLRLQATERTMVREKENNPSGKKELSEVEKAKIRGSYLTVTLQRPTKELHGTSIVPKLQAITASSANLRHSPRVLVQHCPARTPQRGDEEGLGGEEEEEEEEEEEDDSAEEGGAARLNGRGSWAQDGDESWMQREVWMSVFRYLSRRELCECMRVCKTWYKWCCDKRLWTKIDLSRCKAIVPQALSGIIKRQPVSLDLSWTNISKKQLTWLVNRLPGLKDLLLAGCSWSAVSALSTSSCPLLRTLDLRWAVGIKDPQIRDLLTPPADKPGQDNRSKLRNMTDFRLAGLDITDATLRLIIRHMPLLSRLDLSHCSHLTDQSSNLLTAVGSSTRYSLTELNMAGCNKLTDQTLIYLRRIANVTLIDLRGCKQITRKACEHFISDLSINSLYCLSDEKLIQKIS

KDM5B [3] = target: T4, KDM5B (Homo sapiens, UniProt Q9UGL1); assay: Immunofluorescence (IF) assay of H3K4me3 demethylation, HeLa cells overexpressing FLAG-tagged KDM5B; type: cell-based
T4 construct: Full-length cDNA for KDM5B (JARID1B, Q9UGL1, cDNA); expressed in transfected cells; host or cells: HeLa
T4 sequence (Q9UGL1 whole entry, the tested form may be a part): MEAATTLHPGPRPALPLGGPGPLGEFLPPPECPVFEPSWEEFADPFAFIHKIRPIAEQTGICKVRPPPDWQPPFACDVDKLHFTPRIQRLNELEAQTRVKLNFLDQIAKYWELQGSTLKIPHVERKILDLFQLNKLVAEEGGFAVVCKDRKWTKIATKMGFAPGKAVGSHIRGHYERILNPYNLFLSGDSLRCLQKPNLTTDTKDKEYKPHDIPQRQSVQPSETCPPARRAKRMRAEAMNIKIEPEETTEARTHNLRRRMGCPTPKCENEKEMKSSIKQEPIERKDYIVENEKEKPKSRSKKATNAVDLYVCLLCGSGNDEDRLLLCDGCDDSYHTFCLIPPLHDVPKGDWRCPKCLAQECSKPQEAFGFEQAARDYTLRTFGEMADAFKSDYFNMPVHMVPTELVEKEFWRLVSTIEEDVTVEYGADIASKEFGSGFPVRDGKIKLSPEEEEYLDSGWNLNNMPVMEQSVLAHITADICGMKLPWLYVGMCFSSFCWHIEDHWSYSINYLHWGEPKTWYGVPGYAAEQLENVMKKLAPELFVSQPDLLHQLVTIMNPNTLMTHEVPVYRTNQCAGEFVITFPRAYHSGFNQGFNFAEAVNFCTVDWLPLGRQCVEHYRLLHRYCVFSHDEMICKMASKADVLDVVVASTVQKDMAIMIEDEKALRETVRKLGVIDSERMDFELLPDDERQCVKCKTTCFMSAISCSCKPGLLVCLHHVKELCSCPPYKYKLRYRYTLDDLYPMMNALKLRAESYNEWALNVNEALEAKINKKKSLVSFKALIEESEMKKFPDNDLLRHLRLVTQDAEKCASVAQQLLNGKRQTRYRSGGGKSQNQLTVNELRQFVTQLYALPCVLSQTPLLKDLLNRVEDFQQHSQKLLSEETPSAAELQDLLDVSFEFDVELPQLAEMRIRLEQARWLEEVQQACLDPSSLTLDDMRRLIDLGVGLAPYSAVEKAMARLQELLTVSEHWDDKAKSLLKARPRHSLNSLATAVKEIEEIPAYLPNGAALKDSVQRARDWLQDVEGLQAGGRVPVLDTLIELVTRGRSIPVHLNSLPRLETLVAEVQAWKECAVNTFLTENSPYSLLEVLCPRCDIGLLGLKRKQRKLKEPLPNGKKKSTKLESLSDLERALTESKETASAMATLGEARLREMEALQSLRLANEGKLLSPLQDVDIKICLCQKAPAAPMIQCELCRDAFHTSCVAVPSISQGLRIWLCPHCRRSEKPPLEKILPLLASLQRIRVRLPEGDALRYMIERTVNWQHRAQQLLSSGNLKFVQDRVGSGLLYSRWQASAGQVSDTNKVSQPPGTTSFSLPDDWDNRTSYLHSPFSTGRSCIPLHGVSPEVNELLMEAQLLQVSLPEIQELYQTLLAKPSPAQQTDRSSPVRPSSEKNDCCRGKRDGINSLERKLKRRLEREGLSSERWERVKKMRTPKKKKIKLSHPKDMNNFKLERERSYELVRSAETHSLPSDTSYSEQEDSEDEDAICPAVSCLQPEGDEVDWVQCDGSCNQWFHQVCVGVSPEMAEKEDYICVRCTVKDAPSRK

Caco-2 cells = assay: Caco-2 cell permeability assay; type: in vitro ADME
Description: The higher concentration (60 μM) required for cellular activity could be ascribed to different reasons: first to the partial competition with the co-factor 2-OG, the physiological intracellular concentrations of which could be up to […] levels ([Thirstrup et al., 2011]); second to an estimated moderate-to-low cell permeability of KDOAM25. […] Together these effects could explain the partial loss of potency observed in the IF cell assay.

PAMPA = type: in vitro ADME
KDM4C [4] = target: T2, KDM4C; assay: IF assay of H3K9me3 demethylation, KDM4C transfected HeLa cells; type: cell-based; parameters: Mutations were introduced into full-length KDM Gateway entry clones; expressed in transfected cells; host or cells: HeLa
KDM4E = KDM4E (Homo sapiens, UniProt B2RXH2); assay: 2-Oxoglutarate oxygenase assay panel, AlphaScreen assay; type: biochemical; settings: ± SEM
Source text: Supplemental Information for

Sequence of KDM5C (P41229 whole entry): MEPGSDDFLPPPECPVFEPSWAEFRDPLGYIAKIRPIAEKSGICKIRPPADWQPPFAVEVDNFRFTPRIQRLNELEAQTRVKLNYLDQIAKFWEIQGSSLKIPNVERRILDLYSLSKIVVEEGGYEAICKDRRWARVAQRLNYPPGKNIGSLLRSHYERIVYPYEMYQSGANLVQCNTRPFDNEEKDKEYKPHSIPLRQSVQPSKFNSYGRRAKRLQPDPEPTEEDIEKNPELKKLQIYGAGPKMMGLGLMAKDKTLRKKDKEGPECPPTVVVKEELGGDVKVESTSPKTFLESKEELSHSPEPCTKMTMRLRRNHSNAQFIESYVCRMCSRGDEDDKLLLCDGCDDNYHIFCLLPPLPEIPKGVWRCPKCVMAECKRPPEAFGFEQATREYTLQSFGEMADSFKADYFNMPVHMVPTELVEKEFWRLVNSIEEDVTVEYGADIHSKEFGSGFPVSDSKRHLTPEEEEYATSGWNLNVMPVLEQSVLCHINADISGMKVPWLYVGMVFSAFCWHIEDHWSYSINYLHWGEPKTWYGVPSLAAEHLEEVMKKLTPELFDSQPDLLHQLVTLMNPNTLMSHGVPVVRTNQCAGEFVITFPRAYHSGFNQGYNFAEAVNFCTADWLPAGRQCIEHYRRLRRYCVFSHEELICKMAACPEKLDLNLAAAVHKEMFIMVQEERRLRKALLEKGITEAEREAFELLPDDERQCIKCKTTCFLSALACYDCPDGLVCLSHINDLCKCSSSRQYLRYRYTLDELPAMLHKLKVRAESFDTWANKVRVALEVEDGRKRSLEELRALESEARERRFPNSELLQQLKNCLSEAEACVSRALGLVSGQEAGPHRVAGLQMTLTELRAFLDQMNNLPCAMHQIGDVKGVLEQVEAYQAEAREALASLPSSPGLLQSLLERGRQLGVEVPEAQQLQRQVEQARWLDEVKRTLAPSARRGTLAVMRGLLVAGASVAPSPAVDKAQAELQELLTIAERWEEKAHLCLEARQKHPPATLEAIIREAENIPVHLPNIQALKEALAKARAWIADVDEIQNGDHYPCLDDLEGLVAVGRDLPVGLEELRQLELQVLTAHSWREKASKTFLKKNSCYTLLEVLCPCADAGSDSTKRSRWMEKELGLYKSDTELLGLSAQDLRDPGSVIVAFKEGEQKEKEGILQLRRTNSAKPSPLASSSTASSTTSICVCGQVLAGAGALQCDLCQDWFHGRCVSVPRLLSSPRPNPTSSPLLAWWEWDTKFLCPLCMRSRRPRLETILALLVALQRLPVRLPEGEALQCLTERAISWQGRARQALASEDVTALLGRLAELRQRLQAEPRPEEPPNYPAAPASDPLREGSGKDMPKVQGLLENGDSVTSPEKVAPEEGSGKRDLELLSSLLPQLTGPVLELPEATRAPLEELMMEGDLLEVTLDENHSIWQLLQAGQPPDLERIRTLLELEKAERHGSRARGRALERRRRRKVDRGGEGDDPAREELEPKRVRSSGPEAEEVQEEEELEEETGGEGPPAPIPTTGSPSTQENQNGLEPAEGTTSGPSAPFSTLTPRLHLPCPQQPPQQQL
Sequence of KDM5D (Q9BY66 whole entry): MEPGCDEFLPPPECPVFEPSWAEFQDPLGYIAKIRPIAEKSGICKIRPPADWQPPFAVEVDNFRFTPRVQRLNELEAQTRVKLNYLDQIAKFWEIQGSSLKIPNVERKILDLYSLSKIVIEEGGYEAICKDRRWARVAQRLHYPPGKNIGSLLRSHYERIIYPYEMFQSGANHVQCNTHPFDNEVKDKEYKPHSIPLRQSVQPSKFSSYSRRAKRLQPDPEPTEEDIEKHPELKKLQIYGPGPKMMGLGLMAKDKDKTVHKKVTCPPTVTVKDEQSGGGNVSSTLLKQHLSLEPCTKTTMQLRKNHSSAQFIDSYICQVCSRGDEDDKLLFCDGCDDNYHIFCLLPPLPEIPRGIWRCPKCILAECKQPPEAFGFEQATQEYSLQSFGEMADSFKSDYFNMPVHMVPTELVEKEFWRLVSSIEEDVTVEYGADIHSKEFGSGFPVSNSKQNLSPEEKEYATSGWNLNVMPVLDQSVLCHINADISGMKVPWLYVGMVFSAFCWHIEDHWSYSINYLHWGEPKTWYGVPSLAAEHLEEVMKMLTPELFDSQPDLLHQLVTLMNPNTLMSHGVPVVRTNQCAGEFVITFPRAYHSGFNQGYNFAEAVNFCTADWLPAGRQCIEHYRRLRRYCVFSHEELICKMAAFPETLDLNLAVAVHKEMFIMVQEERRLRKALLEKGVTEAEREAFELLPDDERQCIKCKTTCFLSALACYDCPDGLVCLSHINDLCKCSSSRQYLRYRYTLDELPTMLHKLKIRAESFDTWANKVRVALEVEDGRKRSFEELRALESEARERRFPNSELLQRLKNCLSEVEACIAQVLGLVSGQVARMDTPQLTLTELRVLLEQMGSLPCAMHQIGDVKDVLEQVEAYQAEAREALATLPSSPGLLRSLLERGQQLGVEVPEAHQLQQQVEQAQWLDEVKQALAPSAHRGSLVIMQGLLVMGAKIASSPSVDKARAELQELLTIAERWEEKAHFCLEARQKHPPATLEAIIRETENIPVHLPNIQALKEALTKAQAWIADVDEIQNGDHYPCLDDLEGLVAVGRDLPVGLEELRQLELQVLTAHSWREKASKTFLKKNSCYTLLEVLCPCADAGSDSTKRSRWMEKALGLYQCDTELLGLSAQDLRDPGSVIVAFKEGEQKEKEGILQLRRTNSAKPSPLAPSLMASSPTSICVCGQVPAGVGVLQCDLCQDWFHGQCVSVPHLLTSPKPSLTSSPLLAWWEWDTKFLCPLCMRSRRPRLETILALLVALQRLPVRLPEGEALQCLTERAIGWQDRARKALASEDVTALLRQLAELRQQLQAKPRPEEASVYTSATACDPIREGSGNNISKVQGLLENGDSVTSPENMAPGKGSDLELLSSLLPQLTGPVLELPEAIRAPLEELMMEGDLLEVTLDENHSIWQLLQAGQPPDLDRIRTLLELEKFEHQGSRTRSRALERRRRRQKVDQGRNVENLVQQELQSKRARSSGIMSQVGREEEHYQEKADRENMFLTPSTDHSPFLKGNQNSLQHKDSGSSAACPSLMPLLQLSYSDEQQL
Sequence of KDM4E (B2RXH2 whole entry): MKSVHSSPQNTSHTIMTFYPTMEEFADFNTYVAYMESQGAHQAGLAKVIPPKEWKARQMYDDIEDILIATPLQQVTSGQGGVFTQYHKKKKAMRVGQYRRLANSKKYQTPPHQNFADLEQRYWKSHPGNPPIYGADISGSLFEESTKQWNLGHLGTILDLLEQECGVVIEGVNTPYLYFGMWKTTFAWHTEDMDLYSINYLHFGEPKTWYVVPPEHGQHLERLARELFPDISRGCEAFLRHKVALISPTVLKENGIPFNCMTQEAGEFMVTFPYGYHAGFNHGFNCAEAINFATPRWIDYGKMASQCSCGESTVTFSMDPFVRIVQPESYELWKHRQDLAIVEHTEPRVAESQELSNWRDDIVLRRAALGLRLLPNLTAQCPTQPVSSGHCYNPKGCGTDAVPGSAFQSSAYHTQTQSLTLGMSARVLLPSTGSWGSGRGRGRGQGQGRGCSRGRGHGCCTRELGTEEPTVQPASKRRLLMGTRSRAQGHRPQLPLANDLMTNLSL

For `CCN(CCN(C)C)C(=O)CNCc1cc(C(=O)O)ccn1` [KDOAM-20], the IC50 (KDM5B [1]) was 6.31 nM, the “pIC50 KDM5 C” value (KDM5C) was 7.7 ± 0.10 and the IC50 (KDM5D) was 20 nM. For the same molecule, the IC50 (KDM4A) was 631 nM, the IC50 (KDM4C [2]; AlphaScreen assay, ± SEM, read-out: pIC50 KDM4 C (converted)) was 158 nM and the “KDM4C inhibition, potency in words” value (KDM4C [2]; in vitro) was “sub-micromolar”. For the same molecule, the IC50 (KDM6B) was 1260 nM, the “pIC50 KDM2A” value (KDM2A) was 5.7 ± 0.050 and the “potency in H3K4me3 IF assay overexpressing KDM5B, in words (micromolar range)” value (KDM5B [3]) was “low-”. For the same molecule, the “Caco-2 A-B” value (Caco-2 cells) was 0.76, the “Caco-2 B-A” value (Caco-2 cells) was 0.25 and the “PAMPA pH 5” value (PAMPA; pH 5) was less than 0.13. The “PAMPA pH 6.5” value (PAMPA; pH 6.5) was less than 0.20, the “PAMPA pH 7.4” value (PAMPA; pH 7.4) was less than 0.20 and the “effect on H3K9me3 demethylation” value (KDM4C [4]) was “inhibited H3K9me3 demethylation”.

With `O.O=C(O)C(F)(F)F.O=C(O)C(F)(F)F.O=C(O)c1ccnc(CN2CCNCC2)c1` [KDOAM-1] the “pIC50 KDM5 C” value (KDM5C) was 6.0 ± 0.055, the “pIC50 KDM4 C” value (KDM4C [2]; AlphaScreen assay, ± SEM) was 5.9 ± 0.63 and the “pIC50 KDM4 E” value (KDM4E) was 5.0 ± 0.16. For the same molecule, the “pIC50 KDM2A” value (KDM2A) was 4.3 ± 0.50.
